The source of these data is BindingDB's records for doi:10.1021/jm00177a009 (1980).

One experiment deals with DNA polymerase beta (Mus musculus, UniProt Q8K409). In words: ChEBML_50773. From the text: Ability to inhibit mouse beta DNA polymerase
The next experiment addresses Gag-Pol polyprotein (Woolly monkey sarcoma virus, UniProt P03359). In words: ChEBML_196792. The text has this: Ability to inhibit simian sarcoma virus reverse transcriptase

Gag-Pol polyprotein, sequence (P03359 642-1310 limits assumed): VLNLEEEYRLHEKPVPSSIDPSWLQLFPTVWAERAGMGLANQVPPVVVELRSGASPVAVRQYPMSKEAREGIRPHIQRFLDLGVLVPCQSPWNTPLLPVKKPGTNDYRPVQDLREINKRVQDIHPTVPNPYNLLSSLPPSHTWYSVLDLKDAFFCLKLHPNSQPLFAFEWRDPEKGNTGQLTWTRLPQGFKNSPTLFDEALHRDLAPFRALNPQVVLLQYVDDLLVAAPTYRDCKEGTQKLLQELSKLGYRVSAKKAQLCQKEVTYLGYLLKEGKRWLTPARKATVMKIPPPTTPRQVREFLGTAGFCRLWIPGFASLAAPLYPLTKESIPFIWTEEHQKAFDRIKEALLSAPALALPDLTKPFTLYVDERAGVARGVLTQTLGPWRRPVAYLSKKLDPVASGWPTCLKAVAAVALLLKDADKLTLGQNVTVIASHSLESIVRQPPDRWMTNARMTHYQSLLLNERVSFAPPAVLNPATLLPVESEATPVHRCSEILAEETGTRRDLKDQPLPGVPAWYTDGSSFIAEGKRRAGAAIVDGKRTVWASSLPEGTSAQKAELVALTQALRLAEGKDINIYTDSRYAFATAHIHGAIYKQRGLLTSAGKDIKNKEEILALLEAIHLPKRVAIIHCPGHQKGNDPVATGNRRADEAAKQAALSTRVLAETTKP

With `CCN(CC)Cc1cc2c3c4c(C)c(O)c2c(O)c1NC(=O)/C(C)=C\C=C\C(C)C(O)C(C)C(O)C(C)C(OC(C)=O)C(C)C(OC)/C=C/OC(C)(O4)C3=O` (stereo not given) [26-diethylaminomethyl-2,15,17,29-tetrahydroxy-11-methoxy-3,7,12,14,16,18,22-heptamethyl-6,23-dioxo-8,30-dioxa-24-azatetracyclo[23.3.1.14,7.05,28]triaconta-1(28),2,4,9,19,21,25(29),26-octaen-13-yl acetate], half-maximal inhibition against DNA polymerase beta (IC50) required 1100 µM.

The molecule `COC1/C=C/OC2(C)Oc3c(C)c(O)c4c(O)c(c(/C=N/N5CCN(C)CC5)cc4c3C2=O)NC(=O)/C(C)=C\C=C\C(C)C(O)C(C)C(O)C(C)C(OC(C)=O)C1C` (stereo not given) [2,15,17,29-tetrahydroxy-11-methoxy-3,7,12,14,16,18,22-heptamethyl-26-(4-methylhexahydro-1-pyrazinyliminomethyl)-6,23-dioxo-8,30-dioxa-24-azatetracyclo[23.3.1.14,7.05,28]triaconta-1(28),2,4,9,19,21,25(29),26-octaen-13-yl acetate] gave an IC50 on DNA polymerase beta of 150 µM.

Consider `COC1/C=C/OC2(C)Oc3c(C)c(O)c4c(O)c(c(CN5CCNCC5)cc4c3C2=O)NC(=O)/C(C)=C\C=C\C(C)C(O)C(C)C(O)C(C)C(OC(C)=O)C1C` (stereo not given) [26-hexahydro-1-pyrazinylmethyl-2,15,17,29-tetrahydroxy-11-methoxy-3,7,12,14,16,18,22-heptamethyl-6,23-dioxo-8,30-dioxa-24-azatetracyclo[23.3.1.14,7.05,28]triaconta-1(28),2,4,9,19,21,25(29),26-octaen-13-yl acetate], for which the IC50 against DNA polymerase beta worked out at 4200 µM; at Gag-Pol polyprotein it was 1450 µM.

For `COC1/C=C/OC2(C)Oc3c(C)c(O)c4c(O)c(ccc4c3C2=O)NC(=O)/C(C)=C\C=C\C(C)C(O)C(C)C(O)C(C)C(OC(C)=O)C1C` (stereo not given) [2,15,17,29-tetrahydroxy-11-methoxy-3,7,12,14,16,18,22-heptamethyl-6,23-dioxo-8,30-dioxa-24-azatetracyclo[23.3.1.14,7.05,28]triaconta-1(28),2,4,9,19,21,25(29),26-octaen-13-yl acetate], the IC50 against DNA polymerase beta came to 1100 µM; on Gag-Pol polyprotein it was 370 µM.

On DNA polymerase beta, `COC1/C=C/OC2(C)Oc3c(C)c(O)c4c(O)c(c(C=O)cc4c3C2=O)NC(=O)/C(C)=C\C=C\C(C)C(O)C(C)C(O)C(C)C(OC(C)=O)C1C` (stereo not given) [26-formyl-2,15,17,29-tetrahydroxy-11-methoxy-3,7,12,14,16,18,22-heptamethyl-6,23-dioxo-8,30-dioxa-24-azatetracyclo[23.3.1.14,7.05,28]triaconta-1(28),2,4,9,19,21,25(29),26-octaen-13-yl acetate] gave an IC50 of 104 µM.

Take `COc1cccc(CN2CCN(/N=C/c3cc4c5c6c(C)c(O)c4c(O)c3NC(=O)/C(C)=C\C=C\C(C)C(O)C(C)C(O)C(C)C(OC(C)=O)C(C)C(OC)/C=C/OC(C)(O6)C5=O)CC2)c1` (stereo not given) [2,15,17,29-tetrahydroxy-11-methoxy-3,7,12,14,16,18,22-heptamethyl-26-[4-(3-Methoxy-benzyl)-piperazin-1-yl]-methylene-amino-6,23-dioxo-8,30-dioxa-24-azatetracyclo[23.3.1.14,7.05,28]triaconta-1(28),2,4,9,19,21,25(29),26-octaen-13-yl acetate]: the IC50 on DNA polymerase beta was 120 µM.

For the molecule `COC1/C=C/OC2(C)Oc3c(C)c(O)c4c(O)c(c(/C=N/N5CCCC5)cc4c3C2=O)NC(=O)/C(C)=C\C=C\C(C)C(O)C(C)C(O)C(C)C(OC(C)=O)C1C` (stereo not given) [2,15,17,29-tetrahydroxy-11-methoxy-3,7,12,14,16,18,22-heptamethyl-26-Methylene-pyrrolidin-1-yl-amino-6,23-dioxo-8,30-dioxa-24-azatetracyclo[23.3.1.14,7.05,28]triaconta-1(28),2,4,9,19,21,25(29),26-octaen-13-yl acetate], the IC50 on DNA polymerase beta came out at 240 µM.

Consider `COC1/C=C/OC2(C)Oc3c(C)c(O)c4c(O)c(c(O)cc4c3C2=O)NC(=O)/C(C)=C\C=C\C(C)C(O)C(C)C(O)C(C)C(OC(C)=O)C1C` (stereo not given) [2,15,17,26,29-pentahydroxy-11-methoxy-3,7,12,14,16,18,22-heptamethyl-6,23-dioxo-8,30-dioxa-24-azatetracyclo[23.3.1.14,7.05,28]triaconta-1(28),2,4,9,19,21,25(29),26-octaen-13-yl acetate], for which, on DNA polymerase beta, the IC50 was determined as 370 µM.

By IC50 is commonly meant the point on the concentration scale where inhibition reaches its midpoint.
